Results reported in patent publication US20250009769A1, “USE OF LYSOPHOSPHATIDIC ACID (LPA) IN CONTROLLING PORCINE INFECTIOUS DIARRHEA” (SICHUAN AGRICULTURAL UNIVERSITY, priority 2023, published 2025).
Marks after values point to notes of the source that are not given here.

Experiments:
ETEC [1] = test: Diarrhea rate caused by Escherichia coli in weaned piglets, dietary 0.2% LPA (Example 2); format: in vivo, DLY weaned piglets; details: ETEC + LPA group: 0.2% LPA in diet
Method: 21-day-old DLY weaned piglets were selected, with an average weight of (6.23±0.82) kg.
In the experiment, 24 piglets were divided into 3 groups, each group had 8 replicates, and the experimental period was 21 d. […] Slaughtering and sampling were conducted on the morning of day 21 of the experiment.

[2] = parameters: species or system DLY weaned piglets; details: in vivo
Method: (§1) 25-day-old DLY weaned piglets were selected, with an average weight of (7.24±0.07) kg.
(§2) In the experiment, 32 piglets were divided into 4 groups with 8 replicates in each group, and the experimental period was 21 d. […] Slaughtering and sampling were conducted on the morning of day 21 of the experiment.

ETEC [3] = test: Intestinal tissue morphology of piglets infected with ETEC, dietary 0.3% LPA (Example 1); format: in vivo, DLY weaned piglets; details: for Duodenum V/C ratio / Ileum V/C ratio / Jejunum V/C ratio: villus height/crypt depth
Method: as §1, §2
ETEC challenge reduced villus height and V/C in the duodenum and ileum (P<0.05), and increased crypt depth in the ileum (P<0.05). […] Furthermore, the LPA reduced the crypt depth and increased the villus height/crypt depth (V/C) ratio in the ileum of ETEC-challenged piglets (P<0.05).

ETEC [4] = test: Intestinal permeability of piglets infected with ETEC, dietary 0.3% LPA (Example 1); format: in vivo, DLY weaned piglets
Method: as §1, §2

ETEC [5] = test: Diarrhea rate and diarrhea index of weaned piglets after ETEC challenge, dietary 0.3% LPA (Example 1); format: in vivo, DLY weaned piglets
Method: as §1, §2

[6] = LPA + ETEC group: 0.3% LPA, ETEC challenge
[7] = LPA + ETEC group: diet with 0.3% LPA, ETEC challenge on day 18
[8] = LPA group: diet with 0.3% LPA, saline instead of ETEC

**Q.** What does the source list for `CCCCCCCC/C=C\CCCCCCCC(=O)OC[C@@H](O)COP(=O)([O-])[O-].[Na+].[Na+]` [LPA, 1-oleoyl-sn-glycerol 3-phosphate sodium salt]?
**A.** Diarrhea index (ETEC [1]; after challenge): 1.98^b; Diarrhea rate (ETEC [1]; after challenge): 33.56 ± 0.28^b %; Diarrhea index (ETEC [1]; before challenge): 1.68; Diarrhea rate (ETEC [1]; before challenge): 11.86 ± 0.15^b %; Impact on piglet growth performance [2]: no significant negative impact on piglet growth performance; Duodenum crypt depth (ETEC [3]; [6]): 273.45 ± 9.78 ^ μm; Duodenum villus height (ETEC [3]; [6]): 452.55 ± 11.68^b μm; Ileum crypt depth (ETEC [3]; [6]): 170.08 ± 4.12^b μm; Ileum villus height (ETEC [3]; [6]): 378.37 ± 13.76^a μm; Jejunum crypt depth (ETEC [3]; [6]): 177.98 ± 6.30 ^ μm; Jejunum villus height (ETEC [3]; [6]): 360.56 ± 10.87 ^ μm; Duodenum V/C ratio (ETEC [3]; [6]): 1.65 ± 1.19^b; Ileum V/C ratio (ETEC [3]; [6]): 2.22 ± 3.34^b; Jejunum V/C ratio (ETEC [3]; [6]): 2.02 ± 1.73^; Duodenum crypt depth (ETEC [3]; LPA group: 0.3% LPA, no ETEC): 270.03 ± 8.13 μm; Duodenum villus height (ETEC [3]; LPA group: 0.3% LPA, no ETEC): 493.34 ± 12.43^a μm; Ileum crypt depth (ETEC [3]; LPA group: 0.3% LPA, no ETEC): 150.45 ± 4.89^b μm; Ileum villus height (ETEC [3]; LPA group: 0.3% LPA, no ETEC): 401.46 ± 13.45^a μm; Jejunum crypt depth (ETEC [3]; LPA group: 0.3% LPA, no ETEC): 160.98 ± 3.23 μm; Jejunum villus height (ETEC [3]; LPA group: 0.3% LPA, no ETEC): 377.28 ± 9.89 μm; Duodenum V/C ratio (ETEC [3]; LPA group: 0.3% LPA, no ETEC): 1.83 ± 1.53^a; Ileum V/C ratio (ETEC [3]; LPA group: 0.3% LPA, no ETEC): 2.67 ± 2.75^a; Jejunum V/C ratio (ETEC [3]; LPA group: 0.3% LPA, no ETEC): 2.34 ± 3.06; D-lactic acid (ETEC [4]; [6]): 1.53 ± 0.93^b mg/L; DAO (ETEC [4]; [6]): 335.62 ± 14.23^b pg/mL; Fluid accumulation rate (ETEC [4]; [6]): 1.42 ± 0.68^b; LPS (ETEC [4]; [6]): 49.13 ± 2.56^b ng/L; D-lactic acid (ETEC [4]; LPA group: 0.3% LPA, no ETEC): 1.69 ± 0.22^b mg/L; DAO (ETEC [4]; LPA group: 0.3% LPA, no ETEC): 330.43 ± 12.78^b pg/mL; Fluid accumulation rate (ETEC [4]; LPA group: 0.3% LPA, no ETEC): 1.32 ± 1.21^b; LPS (ETEC [4]; LPA group: 0.3% LPA, no ETEC): 48.23 ± 5.23^b ng/L; Diarrhea index (ETEC [5]; [7]): 0.75 ± 0.56^b; Diarrhea rate (ETEC [5]; [7]): 37.50 ± 27.99^b %; Diarrhea index (ETEC [5]; [8]): 0.00 ± 0.00^c; Diarrhea rate (ETEC [5]; [8]): 0.00 ± 0.00^c %
